Structures are written as SMILES.

The experiment addresses HPK1. The experiment can be described thus: HPK1 Lantha Binding Assay ("Lanth"). The following applies: Table B1-1, read-out: HPK1 Ki (μM) (Lanth). The protocol:
HPK1 Lantha Binding Assay (“Lanth”)
The compounds to be tested were diluted by preparing 12.5 uL/well of 5 mM compound (100×) in columns 2 and 13 and 10 ul/well of DMSO in columns 3-12, 14-23, and wells A1-H1 and I24-P24 of the compound plate using a Bravo liquid handling platform. For the reference compound, the top concentration was 1 mM. To the plate was added 10 ul 2 mM staurosporine in wells J1-P1 and A24-H24. A 11 point 5-fold compound serial dilution was performed using the Bravo liquid handling platform. From the plate were transferred 2.5 ul of the solutions from column 2 and column 13 to the 10 ul of DMSO in columns 3 and 14 & so on. The compound plate was centrifuged at 2500 rpm for 1 min. From the compound plate was transferred 80 nl of the compounds into an assay plate using the Echo liquid handler system. One compound plate makes two assay plates. Each assay plate is sealed and stored in an N2 cabinet.
The following assay concentrations and times were used: 2 nM HPK1, 2 nM Eu-Anti-GST Ab, and 15 nM Tracer222, with 60 min incubation time.
III. HPK Lantha Binding Assay:
For the binding assay, 4 ul 2×HPK1 and Eu-anti-GST antibody were added to each well of the assay plate using a Multidrop reagent dispenser. The solutions were incubated in a 23 C incubator for 1 h. To each well of the assay plate was added 4 ul 2× Tracer-222 using a Multidrop reagent dispenser. The solutions were again incubated in a 23 C incubator for 1 h. The results of the assay were read using an Envision plate reader with the following parameters: TR_FRET, 340ex/615 and 665em; 100 usec Delay; and 200 usec integration.
Compound Ki was analyzed using Morrison ki fit model in XL-fit • a. fit=(1−((((E+x)+(Ki*(1+(S/Kd))))−(((((E+x)+(Ki*(1+(S/Kd))))[…])−((4*E)*x))^0.5))/(2*E))) • res=(y-fit) • b. Parameters: • E=enzyme concentration • S=Tracer222 concentration, Kd=Tracer222 Kd • All measurements reported using the same units (uM)
Exemplary compounds of Formula I or Ia were tested in the binding assays. The Ki data in Table B1-1 are based on the “Lanth” assay.
Regarding `CC(=O)N1CC(n2cc(Nc3cc4cc(-c5cnccc5C)nc(N)c4cn3)cn2)C1` [Compound 161, 1-[3-[4-[[8-amino-6-(4-methyl-3-pyridyl)-2,7-naphthyridin-3-yl]amino]pyrazol-1-yl]azetidin-1-yl]ethanone], the Ki amounted to 0.02 nM.

For `Cc1ccncc1-c1nc(N)c2cnc(NC(=O)Nc3cnn(C)c3)cc2c1F` [Compound 162, 1-[8-amino-5-fluoro-6-(4-methyl-3-pyridyl)-2,7-naphthyridin-3-yl]-3-(1-methylpyrazol-4-yl)urea], the Ki worked out at 3.2 nM.

In the case of `Cc1ccncc1-c1nc(N)c2cnc(NC(=O)Nc3cnn(C)c3)cc2c1Cl` [Compound 163, 1-[8-amino-5-chloro-6-(4-methyl-3-pyridyl)-2,7-naphthyridin-3-yl]-3-(1-methylpyrazol-4-yl)urea], the Ki was found to be 1.2 nM.

On to `CCc1ccncc1-c1cc2cc(Nc3cnn(CCO)c3)ncc2c(N)n1` [Compound 168, 2-[4-[[8-amino-6-(4-ethyl-3-pyridyl)-2,7-naphthyridin-3-yl]amino]pyrazol-1-yl]ethanol], for which the Ki was 2 nM.

As to `Cc1ccncc1-c1cc2cc(Nc3cnn(CCO)c3)ncc2c(N)n1` [Compound 169, 2-[4-[[8-amino-6-(4-methyl-3-pyridyl)-2,7-naphthyridin-3-yl]amino]pyrazol-1-yl]ethanol], the Ki came to 0.48 nM.

Regarding `Cc1ccncc1-c1cc2cc(Nc3ccn(C)c(=O)c3)ncc2c(N)n1` [Compound 170, 4-[[8-amino-6-(4-methyl-3-pyridyl)-2,7-naphthyridin-3-yl]amino]-1-methyl-pyridin-2-one], the Ki is 3 nM.

Take `Cc1ccncc1-c1cc2cc(NC(=O)Nc3ccccc3C#N)ncc2c(N)n1` [Compound 171, 1-[8-amino-6-(4-methyl-3-pyridyl)-2,7-naphthyridin-3-yl]-3-(2-cyanophenyl)urea]: the Ki came to 1500 nM.

Consider `COCCN1CC(NC(=O)Nc2cc3cc(-c4cnccc4C)nc(N)c3cn2)C1` [Compound 174, 1-(8-amino-6-(4-methylpyridin-3-yl)-2,7-naphthyridin-3-yl)-3-(1-(2-methoxyethyl)azetidin-3-yl)urea], for which the Ki was determined as 2.5 nM.

Regarding `Cc1ccncc1-c1cc2cc(NC(=O)NC3CNC3)ncc2c(N)n1` [Compound 175, 1-(8-amino-6-(4-methylpyridin-3-yl)-2,7-naphthyridin-3-yl)-3-(azetidin-3-yl)urea], the Ki amounted to 3.4 nM.

`CCc1ccncc1-c1cc2cc(NC(=O)N[C@@H]3CCN(C)C3=O)ncc2c(N)n1` [Compound 176, (R)-1-(8-amino-6-(4-ethylpyridin-3-yl)-2,7-naphthyridin-3-yl)-3-(1-methyl-2-oxopyrrolidin-3-yl)urea]: the Ki is 5.5 nM.

In the case of `CNC(=O)C(C)(C)n1cc(Nc2cc3cc(-c4cnccc4C)nc(N)c3cn2)cn1` [Compound 182, 2-[4-[[8-amino-6-(4-methyl-3-pyridyl)-2,7-naphthyridin-3-yl]amino]pyrazol-1-yl]-N,2-dimethyl-propanamide], the Ki was determined as 1.2 nM.

Consider `Cc1ccncc1-c1cc2cc(Nc3cnn(C(C)(C)C(=O)N(C)C)c3)ncc2c(N)n1` [Compound 183, 2-[4-[[8-amino-6-(4-methyl-3-pyridyl)-2,7-naphthyridin-3-yl]amino]pyrazol-1-yl]-N,N,2-trimethyl-propanamide], for which the inhibitory constant (Ki) turned out to be 0.98 nM.

In the case of `C[C@H]1COC(=O)N1c1cc2cc(NC(=O)[C@@H]3C[C@H]3C#N)ncc2c(N)n1` [Compound 186, trans-N-(8-amino-6-((S)-4-methyl-2-oxooxazolidin-3-yl)-2,7-naphthyridin-3-yl)-2-cyanocyclopropanecarboxamide], the Ki worked out at 4 nM.

Regarding `Cc1ccncc1-c1cc2cc(NC(=O)[C@H]3C[C@@H]3CC#N)ncc2c(N)n1` [Compound 193, (1S,2R)—N-(8-amino-6-(4-methylpyridin-3-yl)-2,7-naphthyridin-3-yl)-2-(cyanomethyl)cyclopropane-1-carboxamide], the Ki amounted to 0.135 nM.

Turning to `Cc1ccncc1-c1cc2cc(NC(=O)[C@@H]3C[C@H]3CC#N)ncc2c(N)n1` [Compound 194, (1R,2S)—N-(8-amino-6-(4-methylpyridin-3-yl)-2,7-naphthyridin-3-yl)-2-(cyanomethyl)cyclopropane-1-carboxamide], the Ki was 0.967 nM.

For `Cc1ccncc1-c1nc(N)c2cnc(NC(=O)[C@H]3C[C@@H]3c3cn[nH]c3)cc2c1F` [Compound 195, (1S,2S)—N-(8-amino-5-fluoro-6-(4-methylpyridin-3-yl)-2,7-naphthyridin-3-yl)-2-(1H-pyrazol-4-yl)cyclopropane-1-carboxamide], the Ki came out at 0.02 nM.

As to `Cc1ccncc1-c1nc(N)c2cnc(NC(=O)[C@@H]3C[C@H]3c3cn[nH]c3)cc2c1F` [Compound 196, (1R,2R)—N-(8-amino-5-fluoro-6-(4-methylpyridin-3-yl)-2,7-naphthyridin-3-yl)-2-(1H-pyrazol-4-yl)cyclopropane-1-carboxamide], the Ki amounted to 6.01 nM.

As to `Cc1ccncc1-c1cc2cc(NC(=O)[C@H]3C[C@@H]3c3cnn(C)c3)ncc2c(N)n1` [Compound 197, (1S,2S)—N-(8-amino-6-(4-methylpyridin-3-yl)-2,7-naphthyridin-3-yl)-2-(1-methyl-1H-pyrazol-4-yl)cyclopropane-1-carboxamide], the Ki was found to be 0.027 nM.

Turning to `Cc1ccncc1-c1cc2cc(NC(=O)[C@@H]3C[C@H]3c3cnn(C)c3)ncc2c(N)n1` [Compound 198, (1R,2R)—N-(8-amino-6-(4-methylpyridin-3-yl)-2,7-naphthyridin-3-yl)-2-(1-methyl-H-pyrazol-4-yl)cyclopropane-1-carboxamide], the Ki was determined as 0.55 nM.

Take `Cc1c(N)cncc1-c1cc2cc(NC(=O)[C@@H]3C[C@H]3C#N)ncc2c(N)n1` [Compound 199, (1R,2R)—N-(8-amino-6-(5-amino-4-methylpyridin-3-yl)-2,7-naphthyridin-3-yl)-2-cyanocyclopropane-1-carboxamide]: the Ki stood at 3.39 nM.

In the case of `Cc1c(N)cncc1-c1cc2cc(NC(=O)[C@H]3C[C@@H]3C#N)ncc2c(N)n1` [Compound 200, (1S,2S)—N-(8-amino-6-(5-amino-4-methylpyridin-3-yl)-2,7-naphthyridin-3-yl)-2-cyanocyclopropane-1-carboxamide], the Ki was 0.343 nM.

As for `Cc1ccncc1-c1cc2cc(NC(=O)[C@H]3C[C@@H]3C#N)ncc2c(N)n1` [Compound 202, (1S,2S)—N-(8-amino-6-(4-methylpyridin-3-yl)-2,7-naphthyridin-3-yl)-2-cyanocyclopropane-1-carboxamide], the Ki was found to be 0.4 nM.

Turning to `Cc1ccncc1-c1cc2cc(NC(=O)[C@@H]3C[C@H]3C#N)ncc2c(N)n1` [Compound 203, (1R,2R)—N-(8-amino-6-(4-methylpyridin-3-yl)-2,7-naphthyridin-3-yl)-2-cyanocyclopropane-1-carboxamide], the Ki was 0.4 nM.

`Cc1ccncc1-c1cc2cc(NC(=O)C3CC3(C)CO)ncc2c(N)n1` (stereo not shown) [Compound 209, N-(8-amino-6-(4-methylpyridin-3-yl)-2,7-naphthyridin-3-yl)-2-(hydroxymethyl)-2-methylcyclopropanecarboxamide]: the Ki came out at 30.7 nM.

Take `Cn1cc([C@@H]2C[C@H]2C(=O)Nc2cc3cc(-c4cnccc4CCO)nc(N)c3cn2)cn1` [Compound 214, (1R,2R)—N-(8-amino-6-(4-(2-hydroxyethyl)pyridin-3-yl)-2,7-naphthyridin-3-yl)-2-(1-methyl-1H-pyrazol-4-yl)cyclopropanecarboxamide]: the Ki came to 0.039 nM.

The record behind these values is US11034692B1 (Genentech, Inc., priority 2017, dated 2021).
